The record followed here is patent US9040255B2, “Use of diazolidinyl urea for anti-clumping of biological samples” (BIOCEPT, INC., priority 2010, dated 2015).

The test system of this experiment is cell clumps in blood. The experiment is described as follows: Cell clumping of biological samples (blood) processed through a microfluidic device. The format is cell-based. To be noted: DU 2% final working concentration, incubated at room temperature for 30 minutes or overnight, compared with samples without DU (FIGS. 1-4). As for the experimental part: In this experiment, DU was dissolved in PBS to make an 80% (w/v) aqueous concentrated solution. The concentrated solution was then added to biological samples in such a way as to yield a final working concentration of 2%. Biological samples were gently mixed with DU solution to ensure equal distribution of DU, and the resulting mixture was incubated at room temperature for at least 30 minutes.
Samples were then processed according to pre-determined protocols.
FIG. 1 provides an example of samples without being treated with DU and processed through a microfluidic device. The white strands are cell clumps.
FIG. 2 provides an example of samples being treated with DU and processed through a microfluidic device (for this particular experiment, the sample and DU were incubated overnight).
FIG. 3 provides another example of samples without being treated with DU and processed through a microfluidic device.
FIG. 4 provides another example of samples being treated with DU and processed through a microfluidic device (for this particular experiment, the sample and DU were incubated for 30 minutes.

For the compound `O=C(NCO)N(CO)C1(CO)C(=O)NC(=O)N1CO` (stereo not shown) [DU, diazolidinyl urea], the “reduction of cellular clumping” value is “great improvement for reducing cellular clumping”.
